From patent US8349899B1 (Arrowhead Center, Inc., priority 2008, dated 2013)
Read-outs that look alike come from different tables or passages of the source.

Columns and labels:
LOX IMVI = experiment: NCI60 growth inhibition, Melanoma LOX IMVI; format: cell-based; conditions: Homo sapiens
From the text: (§1) MSTCO was screened against the NCI60 tumor panel. Cell lines shown above represent lines common to all three screens, and growth inhibition is expressed as the concentration of drug (μM) that achieved 50% growth inhibition.

SK-OV-3 [1] = experiment: NCI60 growth inhibition, Ovarian SK-OV-3; format: cell-based; conditions: Homo sapiens
From the text: as §1

OVCAR-8 = experiment: NCI60 growth inhibition, Ovarian OVCAR-8; format: cell-based; conditions: Homo sapiens
From the text: as §1

UACC-257 = experiment: NCI60 growth inhibition, Melanoma UACC-257; format: cell-based; conditions: Homo sapiens
From the text: as §1

SF-268 = experiment: NCI60 growth inhibition, Central Nervous System SF-268; format: cell-based; conditions: Homo sapiens
From the text: as §1

ACHN = experiment: NCI60 growth inhibition, Renal ACHN; format: cell-based; conditions: Homo sapiens
From the text: as §1

HT29 = experiment: NCI60 growth inhibition, Colon HT29; format: cell-based; conditions: Homo sapiens, HT-29
From the text: as §1

K-562 = experiment: NCI60 growth inhibition, Leukemia K-562; format: cell-based; conditions: Homo sapiens, K562
From the text: as §1

SF-539 = experiment: NCI60 growth inhibition, Central Nervous System SF-539; format: cell-based; conditions: Homo sapiens
From the text: as §1

NCI-H23 = experiment: NCI60 growth inhibition, Non-Small Cell Lung NCI-H23; format: cell-based; conditions: Homo sapiens
From the text: as §1

HOP-62 = experiment: NCI60 growth inhibition, Non-Small Cell Lung HOP-62; format: cell-based; conditions: Homo sapiens
From the text: as §1

SR = experiment: NCI60 growth inhibition, Leukemia SR; format: cell-based; conditions: Homo sapiens
From the text: as §1

U251 [2] = experiment: NCI60 growth inhibition, Central Nervous System U251; format: cell-based; conditions: Homo sapiens, U-251
From the text: as §1

[3] = system: HeLa cervical adenocarcinoma cells; experiment: bipolar spindle formation in HeLa cells; format: cell-based, human; conditions: for IC50: Homo sapiens, read-out: Bipolar spindle formation IC50
Protocol: Biochemical- and cell-based assays were used to evaluate the inhibitory activities of the STLC analogs. Using a commercially available assay from Cytoskeleton, Inc, analogs were assayed for their ability to block the microtubule-activated ATPase activity of recombinant human EG5 motor domain. In parallel, HeLa cells were treated for four hours with a range of concentrations, and then fixed, stained for microtubules, and mitotic cells were scored for spindle bipolarity.

OVCAR-3 = experiment: NCI60 growth inhibition, Ovarian OVCAR-3; format: cell-based; conditions: Homo sapiens
From the text: as §1

SNB-75 = experiment: NCI60 growth inhibition, Central Nervous System SNB-75; format: cell-based; conditions: Homo sapiens
From the text: as §1

HCC-2998 = experiment: NCI60 growth inhibition, Colon HCC-2998; format: cell-based; conditions: Homo sapiens
From the text: as §1

NCI-H226 [4] = experiment: NCI60 growth inhibition, Non-Small Cell Lung NCI-H226; format: cell-based; conditions: Homo sapiens
From the text: as §1

CCRF-CEM = experiment: NCI60 growth inhibition, Leukemia CCRF-CEM; format: cell-based; conditions: Homo sapiens
From the text: as §1

SK-MEL-5 = experiment: NCI60 growth inhibition, Melanoma SK-MEL-5; format: cell-based; conditions: Homo sapiens
From the text: as §1

IGROV1 = experiment: NCI60 growth inhibition, Ovarian IGROV1; format: cell-based; conditions: Homo sapiens, IGROV-1
From the text: as §1

SK-MEL-28 = experiment: NCI60 growth inhibition, Melanoma SK-MEL-28; format: cell-based; conditions: Homo sapiens
From the text: as §1

MALME-3M = experiment: NCI60 growth inhibition, Melanoma MALME-3M; format: cell-based; conditions: Homo sapiens
From the text: as §1

SW-620 = experiment: NCI60 growth inhibition, Colon SW-620; format: cell-based; conditions: Homo sapiens
From the text: as §1

SF-295 [5] = experiment: NCI60 growth inhibition, Central Nervous System SF-295; format: cell-based; conditions: Homo sapiens
From the text: as §1

A549/ATCC = experiment: NCI60 growth inhibition, Non-Small Cell Lung A549/ATCC; format: cell-based; conditions: Homo sapiens
From the text: as §1

COLO 205 = experiment: NCI60 growth inhibition, Colon COLO 205; format: cell-based; conditions: Homo sapiens
From the text: as §1

HL-60(TB) = experiment: cells; format: cell-based; conditions: Homo sapiens; Leukemia HL-60(TB)
M14 = experiment: NCI60 growth inhibition, Melanoma M14; format: cell-based
From the text: as §1

MOLT-4 = experiment: NCI60 growth inhibition, Leukemia MOLT-4; format: cell-based; conditions: Homo sapiens
From the text: as §1

NCI60 tumor panel = NCI60 tumor panel growth inhibition, whole panel; format: cell-based
NCI-H322M = experiment: NCI60 growth inhibition, Non-Small Cell Lung NCI-H322M; format: cell-based; conditions: Homo sapiens
From the text: as §1

UO-31 [6] = experiment: NCI60 growth inhibition, Renal UO-31; format: cell-based; conditions: Homo sapiens
From the text: as §1

HCT-15 = experiment: NCI60 growth inhibition, Colon HCT-15; format: cell-based; conditions: Homo sapiens
From the text: as §1

SNB-19 = experiment: NCI60 growth inhibition, Central Nervous System SNB-19; format: cell-based; conditions: Homo sapiens
From the text: as §1

RPMI-8226 = experiment: NCI60 growth inhibition, Leukemia RPMI-8226; format: cell-based; conditions: Homo sapiens
From the text: as §1

786-0 = experiment: NCI60 growth inhibition, Renal 786-0; format: cell-based; conditions: Homo sapiens
From the text: as §1

TK-10 = experiment: NCI60 growth inhibition, Renal TK-10; format: cell-based; conditions: Homo sapiens
From the text: as §1

OVCAR-4 = experiment: NCI60 growth inhibition, Ovarian OVCAR-4; format: cell-based; conditions: Homo sapiens
From the text: as §1

EKVX = experiment: NCI60 growth inhibition, Non-Small Cell Lung EKVX; format: cell-based; conditions: Homo sapiens
From the text: as §1

OVCAR-5 [7] = experiment: NCI60 growth inhibition, Ovarian OVCAR-5; format: cell-based; conditions: Homo sapiens
From the text: as §1

HCT-116 [8] = experiment: NCI60 growth inhibition, Colon HCT-116; format: cell-based; conditions: Homo sapiens
From the text: as §1

KM12 = experiment: NCI60 growth inhibition, Colon KM12; format: cell-based; conditions: Homo sapiens
From the text: as §1

NCI-H522 [9] = experiment: NCI60 growth inhibition, Non-Small Cell Lung NCI-H522; format: cell-based; conditions: Homo sapiens
From the text: as §1

SN12C = experiment: NCI60 growth inhibition, Renal SN12C; format: cell-based; conditions: Homo sapiens
From the text: as §1

SK-MEL-2 = experiment: NCI60 growth inhibition, Melanoma SK-MEL-2; format: cell-based; conditions: Homo sapiens
From the text: as §1

UACC-62 = experiment: NCI60 growth inhibition, Melanoma UACC-62; format: cell-based; conditions: Homo sapiens
From the text: as §1

CAKI-1 = experiment: NCI60 growth inhibition, Renal CAKI-1; format: cell-based; conditions: Homo sapiens
From the text: as §1

NCI-H226 [10] = conditions: Non-Small Cell Lung NCI-H226; data previously determined; cited from earlier work
SK-OV-3 [11] = conditions: Ovarian SK-OV-3; data previously determined; cited from earlier work
UO-31 [12] = conditions: Renal UO-31; data previously determined; cited from earlier work
U251 [13] = conditions: Central Nervous System U251; data previously determined; cited from earlier work
NCI-H522 [14] = conditions: Non-Small Cell Lung NCI-H522; data previously determined; cited from earlier work
SF-295 [15] = conditions: Central Nervous System SF-295; data previously determined; cited from earlier work
OVCAR-5 [16] = conditions: Ovarian OVCAR-5; data previously determined; cited from earlier work
HCT-116 [17] = conditions: Colon HCT-116; data previously determined; cited from earlier work

**Q.** Which results are given for `COc1ccc(C(SC[C@H](N)CO)(c2ccccc2)c2ccccc2)cc1` [Compound 1.0, 2-amino-3-[(4-methoxy-phenyl)-diphenyl-methylsulfanyl]-propan-1-ol]?
**A.** GI50 (LOX IMVI): 490 nM; GI50 (SK-OV-3 [1]): 80 nM; GI50 (OVCAR-8): 420 nM; GI50 (UACC-257): 540 nM; GI50 (SF-268): 110 nM; GI50 (ACHN): 490 nM; GI50 (HT29): 340 nM; GI50 (K-562): 60 nM; GI50 (SF-539): 260 nM; GI50 (NCI-H23): 260 nM; GI50 (HOP-62): 510 nM; GI50 (SR): 10 nM; GI50 (U251 [2]): 190 nM; inhibitory activity in the cell-based assay ([3]; HeLa bipolar spindle formation): best performing analog; IC50 ([3]; HeLa, 4 h): 180 nM; GI50 (OVCAR-3): 200 nM; GI50 (SNB-75): 260 nM; GI50 (HCC-2998): 50 nM; GI50 (NCI-H226 [4]): 2750 nM; GI50 (CCRF-CEM): 100 nM; GI50 (SK-MEL-5): 60 nM; GI50 (IGROV1): 260 nM; GI50 (SK-MEL-28): 620 nM; GI50 (MALME-3M): 360 nM; GI50 (SW-620): 70 nM; GI50 (SF-295 [5]): 280 nM; GI50 (A549/ATCC): 330 nM; GI50 (COLO 205): 80 nM; GI50 (HL-60(TB)): 190 nM; GI50 (M14; Homo sapiens, Melanoma M14): 20 nM; increase in activity over STLC (M14; melanoma cell line M14, GI50): 20 fold; increase in activity over monastrol (M14; melanoma cell line M14, GI50): 1200 fold; GI50 (MOLT-4): 280 nM; anti-proliferative activity, initial single-dose screen (NCI60 tumor panel; 60 cancer cell lines, single dose 10 μM): promising activity; average increase in activity over Monastrol (NCI60 tumor panel; GI50, average over cell lines): 143 fold; average increase in activity over STLC (NCI60 tumor panel; GI50, average over cell lines): 35 fold; GI50 (NCI60 tumor panel; read-out: average GI50): 360 nM; GI50 (NCI60 tumor panel; read-out: highest GI50 of the range over the panel): 3000 nM; GI50 (NCI60 tumor panel; read-out: lowest GI50 of the range over the panel): 20 nM; GI50 (NCI-H322M): 110 nM; GI50 (UO-31 [6]): 1100 nM; GI50 (HCT-15): 210 nM; GI50 (SNB-19): 250 nM; GI50 (RPMI-8226): 30 nM; GI50 (786-0): 440 nM; GI50 (TK-10): 460 nM; GI50 (OVCAR-4): 1620 nM; GI50 (EKVX): 510 nM; GI50 (OVCAR-5 [7]): 390 nM; GI50 (HCT-116 [8]): 30 nM; GI50 (KM12): 220 nM; GI50 (NCI-H522 [9]): 220 nM; GI50 (SN12C): 320 nM; GI50 (SK-MEL-2): 240 nM; GI50 (UACC-62): 250 nM; GI50 (CAKI-1): 450 nM

**Q.** Which results are given for `N[C@@H](CSC(c1ccccc1)(c1ccccc1)c1ccccc1)C(=O)O` [Compound 2.5, (R)-2-amino-3-(tritylthio)propanoic acid]?
**A.** GI50 (NCI-H226 [10]): 100000 nM; GI50 (SK-OV-3 [11]): 100000 nM; GI50 (UO-31 [12]): 100000 nM; IC50 ([3]; HeLa cells treated with analog for 4 hours, scored for bipolar vs monopolar spindle formation): 660 nM; GI50 (U251 [13]): 1000 nM; GI50 (NCI-H522 [14]): 500 nM; GI50 (SF-295 [15]): 500 nM; GI50 (OVCAR-5 [16]): 100000 nM; GI50 (HCT-116 [17]): 500 nM
